{"source": "patent US9045474B2", "about": "“Compounds and compositions for mitigating tissue damage and lethality” (The Regents of the University of California, priority 2010, dated 2015)", "key": {"[1]": {"test_system": "RS112 cells", "assay": "DEL plating assay for mitigation of radiation damage (treatment after 2000Gy)", "format": "cell-based, Saccharomyces cerevisiae", "protocol": "The mitigation protocol is based on the same DEL assay principle of recombination of the disrupted HIS3 gene that renders the cells capable of synthesizing its own histidine following radiation exposure. To establish mitigation properties of the compounds in question, the classical DEL protocol is modified as follows: first the RS112 cells are irradiated with 2000Gy and then the treatments are administered at 0 min, 10 min, 20 min, 30 min, and 60 min, incubated for 2 hrs, and plated on +13 and −His agar plates. The efficacy of the compounds is scored the same way as in the classical DEL protocol. Yel1 and Yel2 analogues that are efficacious in the HTS and classical DEL assay are analyzed for mitigation activity using this modified DEL protocol.\nSix confirmed hits were also tested for radioprotection with the compounds being presented to irradiated cells at different time points following irradiation exposure. The DEL Plating Assay was used with a radiation sensitive Saccharomyces cerevisiae RS112 strain.\nThe general DEL Assay is described above. In this example, DEL assay is a genetic construct in the Saccharomyces cerevisiae RS112 strain where a plasmid with an internal fragment of the HIS3 gene has been integrated at the HIS3 locus, yielding an integrative disruption of the HIS3 gene. […] The construct reverts to HIS3+ by recombination between the two his3 deletion alleles which is, in 99% of the cases, associated with the deletion of the entire 6 kilobasepairs of DNA comprising the integrated plasmid. DEL events are inducible with a variety of DNA-assaulting agents: radiation, smoking, UV exposure, 92% of the known carcinogens, etc.\nRS112 cells irradiated with 2000Gy show an induction of the deletion frequencies (DEL events) and roughly a 90% killing."}, "[2]": {"test_system": "C3H mice", "assay": "Radioprotection experiments in C3H mice (8Gy, compound before exposure)", "format": "in vivo, mouse", "settings": "8Gy (LD100/30), 75 mg/kg", "source_text": "Only the results for Compound 4 are significant at Day 14 post irradiation. Irradiated controls died on Day 13 while most of the treated mice survived to Day 18, and mice in group 4 and 1 have survived to Day 24. The limitation of this study was the number of mice in each group due to the small quantities of the commercially available compounds."}, "[3]": {"test_system": "yeast DEL tester strain RS112", "assay": "DEL assay, UV radiation-induced damage", "format": "cell-based, Saccharomyces cerevisiae", "protocol": "DEL tester strain was irradiated with 4000 J/m^2 in the ultraviolet range and treated with Yel001 or Yel002 at 60 minutes at the concentration of 15 uM."}, "[4]": {"test_system": "C3H mice", "assay": "Mitigation of radiation-induced lethality in C3H mice (8Gy, LD100/30)", "experimental": "Radiomitigation studies were conduced by pre-treating C3H mice with the compounds of interest at as concentration of 75 mg/kg and at 24 hrs and 1 hr before an 8 Gy exposure. On a 5×24 mitigation treatment protocol mice were first lethally irradiated with 8 Gy and 24 hrs later received the first subcutaneous injection with the compound suspension with subsequent injections at 48, 72, 96, and 120 hrs. The concentration of the compound in the suspension was 75 mg/kg carrier with either 1N saline or phosphate buffer solution (PBS).\nC3H mice in the mitigation experiment were irradiated with 8Gy and then injected with 75 mg/kg 1 hr post exposure and then again 25 hrs post exposure."}, "[5]": {"test_system": "primary keratinocytes", "assay": "Proliferation of primary keratinocytes after 5Gy irradiation", "format": "cell-based, human", "settings": "5 uM, cultured 11 days", "protocol": "After the IR the cells were treated with Yel002 and cultured for 11 days."}}, "note": "Several values for one entry are separate records, joined by “and”; a condition that tells them apart may be missing. Equal entries are not always repeated. Entries after “also recorded” stand apart in the source; their conditions may differ."}
{"compound": "COc1ccc2cc(-c3nc4ccc(C)cn4c3NCc3ccco3)c(=O)[nH]c2c1", "note": "[Yel002]", "values": [{"measurement": "reduction of DEL events (gene reversion frequency)", "setting": "[1]; compound added 0-60 min after 2000Gy, p<0.05", "value": "decreased DEL frequencies; also recorded: significant reduction of genetic instability"}, {"measurement": "mitigation of radiation cytotoxicity (survival)", "setting": "[1]; compound added at time points after 2000Gy, significant only at 60 min", "value": "increased survival fractions; also recorded: mitigation of radiation cytotoxicity has been observed"}, {"measurement": "survival versus 8 Gy control group", "setting": "[2]; listed as 5", "value": "noticeable difference in survival"}, {"measurement": "survival versus 8 Gy control group", "setting": "[2]; listed as Compound 5", "value": "increase in survival"}, {"measurement": "UV genotoxicity and cytotoxicity", "setting": "[3]; 15 uM, P<0.05", "value": "reduces cell death and genotoxicity; also recorded: significantly reduces genotoxicity and cytotoxicity"}, {"measurement": "survival", "setting": "[3]; 4000 J/m^2 UV, 15 uM at 60 minutes, untreated 0.64%", "value": 1.84, "unit": "%"}, {"measurement": "mitigation efficacy", "setting": "[4]; 8Gy, 75 mg/kg 1.25 protocol", "value": "show activity"}, {"measurement": "mice survived LD100/30 irradiation", "setting": "[4]; 8Gy, 75 mg/kg at 1 hr and 25 hrs post exposure, past 30 days, first small study", "value": 67, "unit": "%"}, {"measurement": "survival at 30 days", "setting": "[4]; 8Gy, 75 mg/kg s.c. at 24, 48, 72, 96, 120 hrs (5×24)", "value": "100% and 75%"}, {"measurement": "survival at 30 days", "setting": "[4]; 8Gy, 75 mg/kg s.c. at 24, 48, 72, 96, 120 hrs (5×24), listed as Yel2", "value": 100, "unit": "%"}, {"measurement": "survival at 30 days", "setting": "[4]; 8Gy, 75 mg/kg s.c. at 1 hr and 25 hrs (1.25 schedule)", "value": 88, "unit": "%"}, {"measurement": "percentage of survivors", "setting": "[4]; 8Gy, both protocols, 252 days post irradiation", "value": 40, "unit": "%"}, {"measurement": "animals still alive beyond 30 day window", "setting": "[4]; 8Gy, both protocols, +292 days", "value": 40, "unit": "%"}, {"measurement": "survival, oral (gavage) administration", "setting": "[4]; 8Gy, oral gavage in saline, 5×24 schedule", "value": 33, "unit": "%"}, {"measurement": "dose modifying factor (DMF)", "setting": "[4]; at LD50/30, 7Gy to 9.1 Gy, 75 mg/kg 5×24 s.c.", "value": 1.15}, {"measurement": "proliferation as compared to controls", "setting": "[5]", "value": "increased proliferation"}]}
